# In US20050209157A1, “Short bioactive peptides and methods for their use” (priority 2001, published 2005):
# No end group written: not given here.
# Assays:
# [1] = system: Staphylococcus aureus ATCC 6538; test: Antimicrobial assay I, MIC by OD measurement; assay type: cell-based; settings: 37° C. for 24 hours, absorbance 620 nm
# Excerpt: (§1) The data for the following antimicrobial assay of the peptides have been obtained by making OD measurements in in vitro cell culture experiments with and without added peptide. The protocol used is as follows.
# (§2) Cell lines included Staphylococcus aureus ATCC 6538 or 25923, Pseudomonas aeruginosa ATCC 9027 or 27853. Medium used were Antibiotic Medium 3 (Difco), Antibiotic Medium 2 (Difco), and 0.85% saline. Controls used were physiological saline, and gentamycin at 50, 25, 10, 5, 1, and 0.1 ppm.
# (§3) Absorbance was read at 620 nm after shaking to resuspend cells.
# (§4) Staph6538 is Staphylococcus aureus ATCC accession number 6538; paerug9027 is Pseudomonas aeruginosa ATCC accession number 9027, yeast is Saccharomyces cerevisiae.
# [2] = system: Pseudomonas aeruginosa ATCC 9027; test: Antimicrobial assay I, MIC by OD measurement; assay type: cell-based; settings: 37° C. for 24 hours, absorbance 620 nm
# Excerpt: as §1, §2, §3, §4
# [3] = system: yeast (Saccharomyces cerevisiae); test: Antimicrobial assay I, yeast assay in RPMI 1640; assay type: cell-based; settings: RPMI 1640 media
# Method: as §1, §3
# The yeast assay was performed in RPMI 1640 media (pH 7.0 at 25° C.).
# as §4
# [4] = system: WI38; settings: MTT, 24 hours with peptide; for WI38 LD50: normal fibroblast line; for LD50 WI38: WI38 normal lung fibroblast line
# Method: (§6) Viability of cells is determined by the dye response. In the following procedure, approximately 1.5×10^4 cells per well were added and viability was determined with the cells in a semi-confluent state. The assay was performed in a 96-well microtiter plate. After addition of peptide, the plate was set for 24 hours. MTT (5 mg/ml in phenol red-free RPMI-1640, 20 μl) was added to each well including positive control wells untreated with peptide. The plate was incubated at 37° C. for 4 hours. The liquid contents of each well was removed, and isopropanol with 0.1 M HCl (100 μl) was added to each well. The plate was sealed with parafilm to prevent evaporation of the isopropanol. The plate is allowed to rest for 5-10 minutes in order to solubilize the precipitate. Purified water (100 μl) was added to each well. Absorbance was determined with an ELISA Reader instrument. Color intensity at 540 nm is proportional to viability of cells.
# (§7) WI38 (ATCC No. CCL75) is a normal fibroblast line of lung diploid cells, MCF7 (ATCC No. HTB22) is a breast adenocarcinoma tumor cell line, SW480 (ATCC No. CCL228) is a colon adenocarcinoma tumor cell line, BMKC is a cloned melanoma line derived from Bowes melanoma line HMCB (ATCC No. CRL9607), H1299 (ATCC No. CRL5803) is a lung large cell carcinoma tumor line, HeLaS3 (ATCC No. CCL2.2) is a cervical epitheleal carcinoma tumor cell line, and PC3 (ATCC No. CRL1435) is a prostate adenocarcinoma tumor cell line.
# [5] = system: BMKC; test: Anti-cancer assay, MTT, LD50; assay type: cell-based; settings: BMKC cloned melanoma line, 24 hours with peptide
# Excerpt: (§5) Numbers are LD50 values (μg/mL).
# [6] = system: MCF7; test: Anti-cancer assay, MTT, LD50; assay type: cell-based; settings: MCF7 breast adenocarcinoma line, MTT, 24 hours with peptide
# Excerpt: as §5
# [7] = system: H1299; test: Anti-cancer assay, MTT, LD50; assay type: cell-based; settings: 24 hours with peptide, lung large cell carcinoma
# Excerpt: as §5
# [8] = system: HeLaS3; test: Anti-cancer assay, MTT, LD50; assay type: cell-based; settings: 24 hours with peptide, cervical carcinoma
# Excerpt: as §5
# [9] = system: PC3; test: Anti-cancer assay, MTT, LD50; assay type: cell-based; settings: 24 hours with peptide, prostate adenocarcinoma
# Excerpt: as §5
# [10] = in vitro; assay type: cell-based, human; settings: human, human red blood cells, pH 7, hemolytic assay, concentration at 50% hemolysis, 1 hour at 37° C.; read-out: LD50
# Method: This hemolytic assay is based upon that presented in Journal of Peptide Research 53: 82-90 (1999). […] All procedures were performed according to safety protocols pertaining to the handling and disposal of human body fluids.
# Red blood cells (RBCs) were washed three times with PBS (35 mM phosphate buffer 0.15 M NaCl, pH 7.0). RBCs suspended in PBS (0.4% (v/v); about 10 ml per 15 peptides) were prepared. Suspensions (100 μl) were aliquoted to each sample and control tube. Serially diluted peptide solutions (100 μl) were pipetted into the sample tubes. Negative control tubes contained 100 μl PBS; positive control tubes contained 100 μl 1% Triton-X100 detergent. All tubes were incubated for 1 hour at 37° C. The tubes were removed from the incubator and centrifuged at 1000 g for 5 minutes. Supernatant (100 μl) was pipetted to a 96-well polyvinyl chloride plate. The absorbance at 414 nm (A414) was measured, and used to calculate the percent hemolysis according to the following formula. [formula]
# [11] = in vitro; settings: human, WI38 normal lung fibroblast cells, LD50 WI38, WI38 normal lung fibroblast line, MTT, 24 hours with peptide
# Method: as §6, §7
# [12] = system: SW480; test: Anti-cancer assay, MTT, LD50; assay type: cell-based; settings: SW480 colon adenocarcinoma line, 24 hours with peptide
# Excerpt: as §5
Compound,staph6538 (MIC) [1],paerug9027 (MIC) [2],yeast (MIC or MFC) [3],WI38 LD50 [4],LD50 BMKC [5],LD50 MCF7 [6],H1299 LD50 [7],HeLaS3 LD50 [8],PC3 LD50 [9],HC50 at 1 h [10] [µg/mL],CC50 at 24 h [11] [µg/mL],LD50 SW480 [12],LD50 WI38 [4]
"CC[C@H](C)[C@H](NC(=O)CN)C(=O)NCC(=O)N[C@@H](C)C(=O)N[C@H](C(=O)N[C@@H](CC(C)C)C(=O)N[C@@H](CCCCN)C(=O)N[C@H](C(=O)N[C@@H](CC(C)C)C(=O)N[C@H](C(=O)N[C@H](C(=O)NCC(=O)N[C@@H](CC(C)C)C(=O)N1CCC[C@H]1C(=O)N[C@@H](C)C(=O)N[C@@H](CC(C)C)C(=O)N[C@H](C(=O)N[C@@H](CO)C(=O)N[C@@H](Cc1c[nH]c2ccccc12)C(=O)N[C@H](C(=O)N[C@@H](CCCCN)C(=O)N[C@@H](CCCNC(=N)N)C(=O)N[C@@H](CCCCN)C(=O)N[C@@H](CCCNC(=N)N)C(=O)N[C@@H](CCC(N)=O)C(=O)N[C@@H](CCC(N)=O)C(N)=O)[C@@H](C)CC)[C@@H](C)CC)[C@@H](C)O)[C@@H](C)O)C(C)C)C(C)C [P108, reference compound]",5 µg/mL,> (> indicates greater than 200 μg/mL),25 µg/mL,,,,,,,,,,
"KWKLFKKIGAVLKVL-NH2 [P53, reference compound]",5 µg/mL,15 µg/mL,50 µg/mL,32 µg/mL,40 µg/mL,45 µg/mL,65 µg/mL,30 µg/mL,40 µg/mL,20,32,,
FAKKLAKKLKKLAKKLAKKWKL-NH2 [P70],10 µg/mL,> (> indicates greater than 200 μg/mL),100 µg/mL,34 µg/mL,94 µg/mL,44 µg/mL,63 µg/mL,28 µg/mL,82 µg/mL,80,34,11 µg/mL,
VAKLLAKLAKKVL-NH2 [P154],100 µg/mL,100 µg/mL,50 µg/mL,600 µg/mL,330 µg/mL,315 µg/mL,400 µg/mL,> (> indicates greater than 1000),640 µg/mL,450,600,750 µg/mL,
"FALLKL-NH2 [P168, FALLKL-NH2]",50 µg/mL,100 µg/mL,> (> indicates greater than 200 μg/mL),> (> indicates greater than 1000),590 µg/mL,630 µg/mL,> (> indicates greater than 1000),> (> indicates greater than 1000),> (> indicates greater than 1000),600,,> (> indicates greater than 1000),> (> indicates greater than 1000)
"FKVKFKVKVK-NH2 [P303, reference compound]",,,,355 µg/mL,330 µg/mL,315 µg/mL,345 µg/mL,> (> indicates greater than 1000),530 µg/mL,500,355,530 µg/mL,
LKKLAKLALAF-NH2 [P179],50 µg/mL,50 µg/mL,100 µg/mL,540 µg/mL,920 µg/mL,555 µg/mL,> (> indicates greater than 1000),> (> indicates greater than 1000),> (> indicates greater than 1000),850,540,> (> indicates greater than 1000),
"FAKKLAKLAKKLLAL-NH2 [P38, FAKKLAKLAKKLLAL-NH2]",5 µg/mL,50 µg/mL,50 µg/mL,12 µg/mL,21 µg/mL,17 µg/mL,33 µg/mL,35 µg/mL,10 µg/mL,350,12,13 µg/mL,
VAKLLAKLAKKLL-NH2 [P48],5 µg/mL,5 µg/mL,25 µg/mL,41 µg/mL,43 µg/mL,23 µg/mL,17 µg/mL,44 µg/mL,32 µg/mL,200,41,47 µg/mL,
"FALALKA-NH2 [P141, FALALKA-NH2]",15 µg/mL,50 µg/mL,200 µg/mL,420 µg/mL,465 µg/mL,430 µg/mL,> (> indicates greater than 1000),> (> indicates greater than 1000),,900,420,560 µg/mL,
FALALKALKKLKKALKKAL-OH [P28],,,,101 µg/mL,93 µg/mL,65 µg/mL,54 µg/mL,80 µg/mL,16 µg/mL,700,101,59 µg/mL,
KLLKLLLKLYKKLLKLL-OH [P156],15 µg/mL,> (> indicates greater than 200 μg/mL),> (> indicates greater than 200 μg/mL),230 µg/mL,520 µg/mL,135 µg/mL,,> (> indicates greater than 1000),260 µg/mL,10,230,345 µg/mL,
"ILPWKWPWWPWRR-COOH [P91, reference compound]",10 µg/mL,> (> indicates greater than 200 μg/mL),> (> indicates greater than 200 μg/mL),,180 µg/mL,12 µg/mL,64 µg/mL,20 µg/mL,31 µg/mL,,,30 µg/mL,
"FALALKALKKALKKLKKALKKAL-OH [P1, reference compound]",5 µg/mL,10 µg/mL,> (> indicates greater than 200 μg/mL),,,,,,,100,,,
FAKKLAKKLKKLAKKLIGAVLKV-OH [P99],100 µg/mL,> (> indicates greater than 200 μg/mL),> (> indicates greater than 200 μg/mL),,,,,,,25,,,
FAFGKGIGKIGKKGL-NH2 [P138],> (> indicates greater than 200 μg/mL),> (> indicates greater than 200 μg/mL),> (> indicates greater than 200 μg/mL),> (> indicates greater than 1000),> (> indicates greater than 1000),> (> indicates greater than 1000),> (> indicates greater than 1000),> (> indicates greater than 1000),> (> indicates greater than 1000),20,,> (> indicates greater than 1000),> (> indicates greater than 1000)
